In ChEMBL document CHEMBL4024791, “Identification of Morpholino-2H-pyrido[3,2-b][1,4]oxazin-3(4H)-ones as Nonsteroidal Mineralocorticoid Antagonists” (J Med Chem, 2018):

Experiments:
[1] = biological target: CYP2C9 (Homo sapiens, UniProt P11712); test: Inhibition of CYP2C9 (unknown origin) at 3 uM; assay type: ADME
[2] = biological target: T1, Glucocorticoid receptor (Homo sapiens, UniProt P04150); test: Antagonist activity at GR (unknown origin) by Gal4-based cellular assay
T1 sequence (P04150 whole entry): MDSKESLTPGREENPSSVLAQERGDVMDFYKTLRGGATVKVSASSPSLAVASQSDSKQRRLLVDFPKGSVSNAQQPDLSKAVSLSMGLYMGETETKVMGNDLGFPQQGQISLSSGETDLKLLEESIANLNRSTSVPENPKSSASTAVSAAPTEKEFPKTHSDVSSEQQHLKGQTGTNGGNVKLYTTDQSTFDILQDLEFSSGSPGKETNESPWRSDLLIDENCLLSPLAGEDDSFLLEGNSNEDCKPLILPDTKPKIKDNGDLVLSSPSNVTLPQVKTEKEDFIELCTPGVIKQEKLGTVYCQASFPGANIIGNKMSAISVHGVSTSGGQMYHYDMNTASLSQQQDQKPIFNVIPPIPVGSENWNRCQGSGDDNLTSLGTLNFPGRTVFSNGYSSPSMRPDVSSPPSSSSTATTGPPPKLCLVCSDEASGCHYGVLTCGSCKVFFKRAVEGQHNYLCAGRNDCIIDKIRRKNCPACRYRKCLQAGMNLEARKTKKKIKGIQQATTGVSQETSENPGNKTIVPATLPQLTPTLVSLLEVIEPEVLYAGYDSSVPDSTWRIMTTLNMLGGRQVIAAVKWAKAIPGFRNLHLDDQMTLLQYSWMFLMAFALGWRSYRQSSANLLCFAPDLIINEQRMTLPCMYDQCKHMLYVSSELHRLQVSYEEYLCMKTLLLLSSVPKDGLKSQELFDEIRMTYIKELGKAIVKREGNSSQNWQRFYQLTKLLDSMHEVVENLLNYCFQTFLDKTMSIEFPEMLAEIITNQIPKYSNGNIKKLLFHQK

[3] = Distribution coefficient, log D of the compound; assay type: physicochemical; conditions: octanol/water
[4] = biological target: CYP2D6 (Homo sapiens, UniProt P10635); test: Inhibition of CYP2D6 (unknown origin) at 3 uM; assay type: ADME
Sequence of CYP2D6 (P10635 whole entry): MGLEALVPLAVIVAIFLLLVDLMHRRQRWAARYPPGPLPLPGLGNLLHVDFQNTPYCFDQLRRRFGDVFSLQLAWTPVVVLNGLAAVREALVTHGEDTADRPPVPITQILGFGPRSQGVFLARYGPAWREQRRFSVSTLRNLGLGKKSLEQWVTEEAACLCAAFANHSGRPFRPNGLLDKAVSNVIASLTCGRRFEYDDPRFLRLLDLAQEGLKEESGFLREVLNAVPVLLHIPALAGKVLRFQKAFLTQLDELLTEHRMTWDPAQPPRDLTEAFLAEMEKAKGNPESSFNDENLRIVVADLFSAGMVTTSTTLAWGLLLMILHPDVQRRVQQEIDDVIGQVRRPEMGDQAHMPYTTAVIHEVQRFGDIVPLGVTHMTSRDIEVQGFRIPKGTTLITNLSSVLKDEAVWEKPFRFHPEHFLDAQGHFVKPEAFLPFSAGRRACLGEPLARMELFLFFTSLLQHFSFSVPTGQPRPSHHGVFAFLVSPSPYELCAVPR

[5] = biological target: T2, CYP1A2 (Homo sapiens, UniProt P05177); test: Inhibition of CYP1A2 (unknown origin) at 3 uM; assay type: ADME
T2 sequence (P05177 whole entry): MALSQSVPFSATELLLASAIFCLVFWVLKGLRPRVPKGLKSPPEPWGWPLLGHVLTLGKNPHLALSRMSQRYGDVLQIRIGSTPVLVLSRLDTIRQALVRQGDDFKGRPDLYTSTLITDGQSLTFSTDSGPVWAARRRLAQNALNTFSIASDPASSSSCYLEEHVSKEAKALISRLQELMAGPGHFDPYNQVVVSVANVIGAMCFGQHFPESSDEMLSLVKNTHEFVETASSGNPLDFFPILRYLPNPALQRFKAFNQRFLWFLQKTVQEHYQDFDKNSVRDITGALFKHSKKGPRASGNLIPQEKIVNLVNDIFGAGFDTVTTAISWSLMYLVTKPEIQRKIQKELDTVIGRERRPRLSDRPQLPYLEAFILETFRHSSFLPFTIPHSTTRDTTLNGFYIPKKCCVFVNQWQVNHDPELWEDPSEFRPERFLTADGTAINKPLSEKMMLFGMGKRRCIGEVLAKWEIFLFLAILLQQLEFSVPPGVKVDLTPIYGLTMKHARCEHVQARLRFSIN

[6] = biological target: CYP3A4 (Homo sapiens, UniProt P08684); test: Inhibition of CYP3A4 (unknown origin) at 3 uM; assay type: ADME
Sequence of CYP3A4 (P08684 whole entry, the tested form may be a part): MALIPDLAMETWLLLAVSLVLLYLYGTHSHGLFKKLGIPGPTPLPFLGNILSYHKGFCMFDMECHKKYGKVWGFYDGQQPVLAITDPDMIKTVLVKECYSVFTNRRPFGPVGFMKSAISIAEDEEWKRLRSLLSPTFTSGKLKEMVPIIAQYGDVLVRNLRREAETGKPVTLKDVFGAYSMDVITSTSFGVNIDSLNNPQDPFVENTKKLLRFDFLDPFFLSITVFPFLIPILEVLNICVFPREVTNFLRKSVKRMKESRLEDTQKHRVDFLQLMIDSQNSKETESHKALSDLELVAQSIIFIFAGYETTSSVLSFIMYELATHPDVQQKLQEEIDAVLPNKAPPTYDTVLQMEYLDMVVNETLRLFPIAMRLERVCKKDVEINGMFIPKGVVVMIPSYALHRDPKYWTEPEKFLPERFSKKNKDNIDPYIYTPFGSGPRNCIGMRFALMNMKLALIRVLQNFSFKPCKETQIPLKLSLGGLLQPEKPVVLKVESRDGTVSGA

[7] = biological target: T3, Androgen receptor (Homo sapiens, UniProt P10275); test: Antagonist activity at human GAL4-DBD fused AR ligand binding domain transfected in human Huh7 cells co-expressing GAL4-RE-Luc assessed as reduction in dihydrotestosterone-induced luciferase activity after 16 hrs by luciferase reporter gene assay; assay type: cell-based
T3 sequence (P10275 whole entry): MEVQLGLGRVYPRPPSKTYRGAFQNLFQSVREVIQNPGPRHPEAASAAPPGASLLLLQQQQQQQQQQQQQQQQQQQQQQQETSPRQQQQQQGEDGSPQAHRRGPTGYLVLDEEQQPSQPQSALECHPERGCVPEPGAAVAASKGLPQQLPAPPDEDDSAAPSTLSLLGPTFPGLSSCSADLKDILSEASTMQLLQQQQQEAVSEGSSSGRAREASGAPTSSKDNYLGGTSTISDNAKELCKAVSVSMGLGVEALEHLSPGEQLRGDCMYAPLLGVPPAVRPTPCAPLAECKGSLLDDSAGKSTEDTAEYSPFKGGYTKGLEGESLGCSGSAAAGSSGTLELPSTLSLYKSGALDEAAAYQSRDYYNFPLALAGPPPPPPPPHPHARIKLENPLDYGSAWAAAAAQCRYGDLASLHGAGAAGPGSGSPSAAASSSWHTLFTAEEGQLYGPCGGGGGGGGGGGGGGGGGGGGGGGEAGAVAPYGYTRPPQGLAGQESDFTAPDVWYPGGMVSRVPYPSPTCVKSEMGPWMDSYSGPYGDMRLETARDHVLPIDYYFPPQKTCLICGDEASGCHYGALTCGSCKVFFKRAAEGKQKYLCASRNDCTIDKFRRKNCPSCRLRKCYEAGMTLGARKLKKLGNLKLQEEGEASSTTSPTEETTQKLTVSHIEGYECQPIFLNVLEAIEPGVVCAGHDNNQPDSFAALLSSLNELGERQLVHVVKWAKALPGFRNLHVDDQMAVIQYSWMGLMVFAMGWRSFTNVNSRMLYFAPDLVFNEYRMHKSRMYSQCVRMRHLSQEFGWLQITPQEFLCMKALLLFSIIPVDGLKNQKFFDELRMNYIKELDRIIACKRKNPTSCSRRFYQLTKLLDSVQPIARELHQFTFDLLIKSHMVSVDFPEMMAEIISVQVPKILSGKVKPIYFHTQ

Sequence of CYP2C9 (P11712 whole entry, the tested form may be a part): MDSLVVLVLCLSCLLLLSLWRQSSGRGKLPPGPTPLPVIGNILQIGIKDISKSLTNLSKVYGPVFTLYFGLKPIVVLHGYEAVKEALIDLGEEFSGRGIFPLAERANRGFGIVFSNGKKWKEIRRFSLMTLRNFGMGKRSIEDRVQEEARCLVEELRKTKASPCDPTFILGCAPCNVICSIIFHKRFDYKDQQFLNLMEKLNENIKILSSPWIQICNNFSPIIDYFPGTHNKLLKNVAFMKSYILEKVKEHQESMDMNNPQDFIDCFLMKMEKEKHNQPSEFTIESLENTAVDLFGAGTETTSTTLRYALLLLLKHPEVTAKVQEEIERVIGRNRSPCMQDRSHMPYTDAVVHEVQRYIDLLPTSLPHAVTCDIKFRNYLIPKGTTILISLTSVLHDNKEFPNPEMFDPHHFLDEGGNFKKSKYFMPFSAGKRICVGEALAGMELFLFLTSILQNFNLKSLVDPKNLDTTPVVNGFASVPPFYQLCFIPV

SMILES	inhibition at 3 µM [1] [%]	IC50 [2] [µM]	logD [3]	inhibition at 3 µM [4] [%]	inhibition at 3 µM [5] [%]	inhibition at 3 µM [6] [%]	IC50 [7] [µM]
O=C1COc2ccc(N3CCOC[C@H]3c3ccccc3)cc2N1	< 10	> 10	2.7	< 10	< 10	< 10	> 10
C[C@@H]1CN(c2ccc3c(n2)NC(=O)CO3)[C@H](c2ccccc2)CO1	< 20	> 10	2.8	< 20	< 20	< 20	> 10
